Source: patent US20210188843A1, “QUINOLINE COMPOUNDS AND THEIR PREPARATION AND USE AS ANTIMALARIAL AGENTS” (The United States of America,as represented by the …, priority 2018, published 2021)
≈ marks a conversion by molar mass, not a printed value. Read-outs that look alike come from different tables or passages of the source.

Legend:
Solubility pH 7.4 = type: physicochemical; conditions: aqueous buffer
[1] = test system: Asexual parasites of P. falciparum strain 3D7; assay: In vitro drug activity on asexual parasites (SYBR Green assay); type: cell-based; conditions: Plasmodium falciparum, P. falciparum 3D7 asexual stage, 72 h, read-out: Asexual EC50
Experimental: Cell culture. Asexual parasites of P. falciparum strain 3D7 were cultured as described previously [Trager W, et al., Journal of Parasitology 2005, 91: 484-486]. Stage III-V gametocytes were selected and enriched with 3-day treatment with 50 mM N-acetylglucosamine (NAG) and the following Percoll density gradient centrifugation after gametocyte production [Tanaka T Q, et al., Molecular and Biochemical Parasitology, 2011, 177: 160-163]. Gametocytes of HB3 and Dd2 strains were produced and then set up for assay in a similar process. HepG2 cells (ATCC, cat. no. 77400) were cultured in 175-cm^2 tissue culture flasks with 30 ml growth medium at 37° C. in a 5% CO2 humidified atmosphere. Growth medium was made with Dulbecco's Modified Eagle Medium with 10% fetal bovine serum (FBS). Growth medium was replaced every other day and cells were passed at 75% confluence.
Asexual parasites of P. falciparum strain 3D7 were cultured as described previously (Trager, W. et al., J. Parasitol. 2005, 91(3): 484-486). Drug activity on asexual stage parasites was tested using a SYBR Green assay as described previously (Eastman, R. T. et al., Antimicrob. Agents Chemother. 2013, 57(1): 425-435; Smilkstein, M. et al., Antimicrob. Agents Chemother. 2004, 48(5): 1803-1806). Briefly, parasites were diluted to 0.5% parasitemia in complete culture medium with 2% hematocrit and drugs diluted in DMSO (<0.5%) and were loaded into a 96-well plate (200 μl/well). No drug and RBC alone wells were included as positive and background controls, respectively, and each testing condition was examined in duplicated. After 72 h incubation under the standard culture condition and a freeze-thaw lysis step at −80° C. and room temperature, 100 μl/well of lysis buffer containing SYBR Green I was added to the parasite culture and incubated for 30 min at room temperature. The fluorescence of each well was measured at 520 nm following excitation at 490 nm using a FLUOstar Optima™ microplate reader (BMG Labtech).
Compounds were screened against gametocytes and asexual parasites as described in Examples 1 and 2.

[2] = Microsomal stability (rat); type: in vitro ADME; conditions: rat microsomes
[3] = Table 2, read-out: Microsomal Stability (rat) T1/2
[4] = Table 3, read-out: Microsomal Stability (rat) T1/2

Compound | solubility (Solubility pH 7.4; Table 3) | EC50 ([1]; Table 3) | EC50 ([1]; Table 1) | further results
N#Cc1cccc(-n2c(=N)ccc3cnc4ccc(-c5ccc(Cl)cc5)cc4c32)c1 | – | – | – | solubility (Solubility pH 7.4; Table 2): 25.9 µg/mL (≈ 63.7 µM); EC50 ([1]; Table 2): 186 nM; half-life [2, 3]: > 30 min
N=c1ccc2cnc3ccc(-c4ccc(Cl)cc4)cc3c2n1-c1cccc(C(F)(F)F)c1 | – | – | – | solubility (Solubility pH 7.4; Table 2): 11.5 µg/mL (≈ 25.6 µM); EC50 ([1]; Table 2): 213 nM; half-life [2, 3]: > 30 min
Cc1ccc([S+](=O)([O-])/N=c2\ccc3cnc4ccc(-c5ccc(Cl)cc5)cc4c3n2-c2ccc(C(=O)NC3CC3)cc2)cc1 | – | – | – | solubility (Solubility pH 7.4; Table 2): < 1 µg/mL; EC50 ([1]; Table 2): 59 nM; half-life [2, 3]: 11.5 min
N=c1ccc2cnc3ccc(-c4ccc(Cl)cc4)cc3c2n1-c1ccc(C(=O)NC2CC2)cc1 | – | – | – | solubility (Solubility pH 7.4; Table 2): > 69 µg/mL; EC50 ([1]; Table 2): 85.7 nM; half-life [2, 3]: > 30 min
Cc1ncncc1-n1c(=N)n(C)c2cnc3ccc(-c4ccc(N)nc4)cc3c21 | > 38 µg/mL | 164 nM | – | half-life [2, 4]: > 30 min
Cn1/c(=N\c2cncnc2)n(-c2cncnc2)c2c3cc(-c4cccc(F)c4)ccc3ncc21 | – | 193 nM | – | –
Cn1nccc1-c1ccc2ncc3c(c2c1)n(-c1cncnc1)c(=N)n3C | 36.3 µg/mL (≈ 102 µM) | 570 nM | – | –
COc1cc(-c2ccc3ncc4c(c3c2)n(-c2cncnc2C)c(=N)n4C)ccc1Cl | 1.3 µg/mL (≈ 3.02 µM) | 50.8 nM | – | –
COc1ccc(-c2ccc3ncc4c(c3c2)n(-c2cncnc2C)c(=N)n4C)cc1F | > 61 µg/mL | 229 nM | – | –
COc1cc(-c2ccc3ncc4c(c3c2)n(-c2cncnc2C)c(=N)n4C)ccc1F | < 1 µg/mL | 52.5 nM | – | –
Cc1ncncc1-n1c(=N)n(C)c2cnc3ccc(-c4ccc(Cl)c(C(F)(F)F)c4)cc3c21 | 10.6 µg/mL (≈ 22.6 µM) | 160 nM | – | half-life [2, 4]: > 30 min
Cn1c(=N)n(-c2cncnc2)c2c3cc(-c4ccc(Cl)c(C#N)c4)ccc3ncc21 | – | 136 nM | – | –
Cc1ncncc1-n1c(=N)n(C)c2cnc3ccc(-c4ccc(Cl)c(OC(F)(F)F)c4)cc3c21 | 16 µg/mL (≈ 33 µM) | 158 nM | – | half-life [2, 4]: > 30 min
Cn1c(=N)n(-c2cncnc2)c2c3cc(-c4ccc(Cl)c(OC(F)(F)F)c4)ccc3ncc21 | < 1 µg/mL | 315 nM | – | half-life [2, 4]: > 30 min
COc1ccc(-c2ccc3ncc4c(c3c2)n(-c2cncnc2C)c(=N)n4C)cc1OC | – | 25.8 nM | – | half-life [2, 4]: > 30 min
Cn1c(=N)n(-c2ccnc(N)n2)c2c3cc(-c4ccc(Cl)cc4)ccc3ncc21 | 3.4 µg/mL (≈ 8.46 µM) | 140 nM | – | half-life [2, 4]: > 30 min
Cn1c(=N)n(-c2ccnc(N)n2)c2c3cc(-c4cccc(F)c4)ccc3ncc21 | 20.9 µg/mL (≈ 54.2 µM) | 523 nM | – | half-life [2, 4]: > 30 min
Cn1c(=N)n(-c2nccc(C(F)(F)F)n2)c2c3cc(-c4ccc(Cl)cc4)ccc3ncc21 | < 1 µg/mL | 450 nM | – | –
Cn1c(=N)n(-c2nccc(C(F)(F)F)n2)c2c3cc(-c4cccc(F)c4)ccc3ncc21 | < 1 µg/mL | 202 nM | – | –
COc1ccnc(-n2c(=N)n(C)c3cnc4ccc(-c5ccc(Cl)cc5)cc4c32)n1 | < 1 µg/mL | 2110 nM | – | –
COc1ccnc(-n2c(=N)n(C)c3cnc4ccc(-c5cccc(F)c5)cc4c32)n1 | 6.5 µg/mL (≈ 16.2 µM) | 1310 nM | – | –
Cn1c(=N)n(-c2nccc(O)n2)c2c3cc(-c4cccc(F)c4)ccc3ncc21 | < 1 µg/mL | 18800 nM | – | half-life [2, 4]: > 30 min
Cc1cc(N2CCCC2)c(C#N)cc1-n1c(=N)n(C)c2cnc3ccc(-c4ccc(Cl)cc4)cc3c21 [Compound 111, 5-(8-(4-chlorophenyl)-2-imino-3-methyl-2,3-dihydro-1H-imidazo[4,5-c]quinolin-1-yl)-4-methyl-2-(pyrrolidin-1-yl)benzonitrile] | – | – | 801 nM | –
Cc1cc(N2C[C@@H]3CCCN[C@@H]3C2)c(C#N)cc1-n1c(=N)n(C)c2cnc3ccc(-c4ccc(Cl)cc4)cc3c21 [Compound 120, 5-(8-(4-chlorophenyl)-2-imino-3-methyl-2,3-dihydro-1H-imidazo[4,5-c]quinolin-1-yl)-4-methyl-2-((4aS,7aS)-octahydro-6H-pyrrolo[3,4-b]pyridin-6-yl)benzonitrile] | – | – | 1470 nM | –
CC(=O)N1CCC(N2CCC(n3c(=N)n(C)c4cnc5ccc(-c6ccc(Cl)cc6)cc5c43)CC2)CC1 [Compound 127, 1-(4-(8-(4-chlorophenyl)-2-imino-3-methyl-2,3-dihydro-1H-imidazo[4,5-c]quinolin-1-yl)-[1,4′-bipiperidin]-1′-yl)ethan-1-one] | – | – | 1500 nM | –
CCC(=O)N1CCC(N2CCC(n3c(=N)n(C)c4cnc5ccc(-c6ccc(Cl)cc6)cc5c43)CC2)CC1 [Compound 128, 1-(4-(8-(4-chlorophenyl)-2-imino-3-methyl-2,3-dihydro-1H-imidazo[4,5-c]quinolin-1-yl)-[1,4′-bipiperidin]-1′-yl)propan-1-one] | – | – | 627 nM | –
Cc1cc(N2CCNC(=O)C2)c(C#N)cc1-n1c(=N)n(C)c2cnc3ccc(-c4ccc(Cl)cc4)cc3c21 [Compound 133, 5-(8-(4-chlorophenyl)-2-imino-3-methyl-2,3-dihydro-1H-imidazo[4,5-c]quinolin-1-yl)-4-methyl-2-(3-oxopiperazin-1-yl)benzonitrile] | – | – | 6.26 nM | –
COC(=O)/N=c1\n(C)c2cnc3ccc(-c4cccc(F)c4)cc3c2n1-c1cc(C#N)c(N2CCOCC2)cc1C [Compound 148, Methyl (E)-(1-(5-cyano-2-methyl-4-morpholinophenyl)-8-(3-fluorophenyl)-3-methyl-1,3-dihydro-2H-imidazo[4,5-c]quinolin-2-ylidene)carbamate] | – | – | 236 nM | –

Continued, in another order:

solubility (Solubility pH 7.4; Table 3) | EC50 ([1]; Table 3) | EC50 ([1]; Table 1) | Compound | further results
< 1 µg/mL | 43100 nM | – | Cn1c(=N)n(-c2nccc(O)n2)c2c3cc(-c4ccc(Cl)cc4)ccc3ncc21 | half-life [2, 4]: > 30 min
< 1 µg/mL | 1860 nM | – | Cn1c(=N)n(-c2nccc(N)n2)c2c3cc(-c4ccc(Cl)cc4)ccc3ncc21 | half-life [2, 4]: > 30 min
– | – | 118 nM | Cn1c(=N)n(-c2cccc(CC#N)c2)c2c3cc(-c4ccc(Cl)cc4)ccc3ncc21 [Compound 73, 2-(3-(8-(4-chlorophenyl)-2-imino-3-methyl-2,3-dihydro-1H-imidazo[4,5-c]quinolin-1-yl)phenyl)acetonitrile] | –
– | – | 224 nM | Cn1c(=N)n(-c2ccnc(C#N)c2)c2c3cc(-c4ccc(Cl)cc4)ccc3ncc21 [Compound 90, 4-(8-(4-chlorophenyl)-2-imino-3-methyl-2,3-dihydro-1H-imidazo[4,5-c]quinolin-1-yl)picolinonitrile] | –
– | – | 352 nM | Cc1cc(N2CCOC(C)C2)c(C#N)cc1-n1c(=N)n(C)c2cnc3ccc(-c4ccc(Cl)cc4)cc3c21 (stereo not shown) [Compound 119, 5-(8-(4-chlorophenyl)-2-imino-3-methyl-2,3-dihydro-1H-imidazo[4,5-c]quinolin-1-yl)-4-methyl-2-(2-methylmorpholino)benzonitrile] | –
– | – | 16.3 nM | Cc1cc(N2CCC(NS(C)(=O)=O)CC2)c(C#N)cc1-n1c(=N)n(C)c2cnc3ccc(-c4ccc(Cl)cc4)cc3c21 [Compound 131, N-(1-(4-(8-(4-chlorophenyl)-2-imino-3-methyl-2,3-dihydro-H-imidazo[4,5-c]quinolin-1-yl)-2-cyano-5-methylphenyl)piperidin-4-yl)methanesulfonamide] | –
– | – | 74.3 nM | Cc1cc(F)c(C#N)cc1-n1c(=N)n(C)c2cnc3ccc(-c4ccc(Cl)cc4)cc3c21 [Compound 134, 5-(8-(4-chlorophenyl)-2-imino-3-methyl-2,3-dihydro-1H-imidazo[4,5-c]quinolin-1-yl)-2-fluoro-4-methylbenzonitrile] | –
